Patent publication US9321773B2, “Compounds” (Respivert Ltd, priority 2009, dated 2016)
Read-outs that look alike come from different tables or passages of the source.

Key:
recombinant PI3 kinase γ = recombinant PI3 kinase γ (Homo sapiens (Human), UniProt P48736); experiment: Enzyme Inhibition Assay (HTRF PI3K enzyme assay, TR-FRET); assay type: biochemical
Procedure, shortened: (§1)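 TR-FRET readout after 15-18 hr at RT with biotinylated PIP3, GST-tagged GRP1 PH domain and europium/APC fluorophores; product PIP3 displaces the tracer and lowers the signal. Beforehand, compound and PIP2 were reacted for 2 hr at RT with human recombinant PI3Kα, δ or γ.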

recombinant PI3 kinase δ = recombinant PI3 kinase δ (Homo sapiens (Human), UniProt O00329); experiment: as above; assay type: biochemical
Procedure, shortened: as §1

recombinant PI3 kinase α = recombinant PI3 kinase α (Homo sapiens (Human), UniProt P42336); experiment: as above; assay type: biochemical
Procedure, shortened: as §1

[1] = Stereochemical analysis by chiral stationary phase HPLC (atropisomerism); assay type: physicochemical; settings: chiral stationary phase HPLC (16 different conditions for the examples)
Procedure: Each of these mobile phase are compatible with the column packings referred to above, providing sixteen different solvent and stationary phase permutations. Modifiers such as triethylamine (0.1%), formic acid (0.1%) may be added to improve the resolution
Semi-preparative Chiral Stationary Phase LC-UV was performed on a Gilson preparative modular system using a Daicel Chiralpak AD semi-prep column ([…], 20×250 mm) and a flow rate of 18 mL/min eluting with an isocratic method over 20 min using […] heptane:IPA and 0.1% triethylamine employing an injection volume of 1.0 mL.

[2] = test system: PMA-differentiated U937 cells; experiment: MTT Assay (cell viability); assay type: cell-based, Human; settings: percentage loss of cell viability; for Cell Viability MTT Assay in D-U937 cells at 4 hr: 4 hr in 5% FCS; for Cell Viability MTT Assay in D-U937 cells at 24 hr: 24 hr in 10% FCS
Procedure, shortened: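 Differentiated U937 cells treated with compound for 4 hr (5% FCS) or 24 hr (10% FCS), then given MTT for 1 hr; formazan dissolved in DMSO and absorbance read at 550 nm. Viability loss expressed as % versus 0.5% DMSO vehicle.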

[3] = test system: H2O2 induced pAkt in D-U937 cells; experiment: PI3Kδ Cell Based Assay (H2O2 induced pAkt); settings: Homo sapiens
Procedure, shortened: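 Read-out is the pAkt/total Akt signal ratio, measured with anti-pAkt and anti-pan-Akt antibodies after H2O2 stimulation. Cells were U937 monocytes given PMA (100 ng/mL) for 48 to 72 hr. IC50 values fitted from compound serial dilutions.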

[4] = activity range, read-out: PI3 Kinase Inhibition IC50 values at stated Isozyme γ
[5] = activity range, read-out: PI3 Kinase Inhibition IC50 values at stated Isozyme δ
[6] = activity range, read-out: PI3 Kinase Inhibition IC50 values at stated Isozyme α
[7] = dU937, activity range, D-U937 cells, read-out: Cellular Activity IC50 values (H2O2 induced pAkt D-U937 Cells)
[8] = dU937, read-out: Cellular Activity IC50 values (H2O2 induced pAkt D-U937 Cells)

Chain of recombinant PI3 kinase γ (P48736 whole entry, the tested form may be a part): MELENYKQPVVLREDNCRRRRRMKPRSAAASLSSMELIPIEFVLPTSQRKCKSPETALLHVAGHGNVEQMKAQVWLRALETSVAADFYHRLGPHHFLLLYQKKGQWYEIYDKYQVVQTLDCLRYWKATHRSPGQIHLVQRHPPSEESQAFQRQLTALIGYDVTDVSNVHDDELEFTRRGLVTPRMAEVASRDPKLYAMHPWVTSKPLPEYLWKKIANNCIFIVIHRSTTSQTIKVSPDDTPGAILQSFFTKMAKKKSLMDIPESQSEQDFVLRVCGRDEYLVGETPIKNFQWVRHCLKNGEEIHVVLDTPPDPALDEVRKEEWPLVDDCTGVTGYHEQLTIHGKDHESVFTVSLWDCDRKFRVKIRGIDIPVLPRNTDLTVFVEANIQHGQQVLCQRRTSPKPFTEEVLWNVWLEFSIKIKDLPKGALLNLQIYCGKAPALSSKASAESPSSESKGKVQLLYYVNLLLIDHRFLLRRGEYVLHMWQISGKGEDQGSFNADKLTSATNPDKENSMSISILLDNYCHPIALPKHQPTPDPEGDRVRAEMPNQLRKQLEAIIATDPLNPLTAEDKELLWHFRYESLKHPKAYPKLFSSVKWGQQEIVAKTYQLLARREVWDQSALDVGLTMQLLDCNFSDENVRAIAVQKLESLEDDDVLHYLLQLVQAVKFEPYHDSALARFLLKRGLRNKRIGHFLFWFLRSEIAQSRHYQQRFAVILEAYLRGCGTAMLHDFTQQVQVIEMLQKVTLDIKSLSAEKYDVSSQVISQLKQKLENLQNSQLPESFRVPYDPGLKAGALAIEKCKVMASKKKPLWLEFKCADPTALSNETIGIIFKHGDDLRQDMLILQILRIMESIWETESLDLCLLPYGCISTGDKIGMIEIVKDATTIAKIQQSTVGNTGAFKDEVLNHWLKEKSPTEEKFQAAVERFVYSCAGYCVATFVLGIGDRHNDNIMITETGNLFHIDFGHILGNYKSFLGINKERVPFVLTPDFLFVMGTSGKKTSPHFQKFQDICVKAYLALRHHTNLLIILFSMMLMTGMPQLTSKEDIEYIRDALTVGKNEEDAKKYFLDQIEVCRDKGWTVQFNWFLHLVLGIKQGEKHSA
Chain of recombinant PI3 kinase δ (O00329 whole entry): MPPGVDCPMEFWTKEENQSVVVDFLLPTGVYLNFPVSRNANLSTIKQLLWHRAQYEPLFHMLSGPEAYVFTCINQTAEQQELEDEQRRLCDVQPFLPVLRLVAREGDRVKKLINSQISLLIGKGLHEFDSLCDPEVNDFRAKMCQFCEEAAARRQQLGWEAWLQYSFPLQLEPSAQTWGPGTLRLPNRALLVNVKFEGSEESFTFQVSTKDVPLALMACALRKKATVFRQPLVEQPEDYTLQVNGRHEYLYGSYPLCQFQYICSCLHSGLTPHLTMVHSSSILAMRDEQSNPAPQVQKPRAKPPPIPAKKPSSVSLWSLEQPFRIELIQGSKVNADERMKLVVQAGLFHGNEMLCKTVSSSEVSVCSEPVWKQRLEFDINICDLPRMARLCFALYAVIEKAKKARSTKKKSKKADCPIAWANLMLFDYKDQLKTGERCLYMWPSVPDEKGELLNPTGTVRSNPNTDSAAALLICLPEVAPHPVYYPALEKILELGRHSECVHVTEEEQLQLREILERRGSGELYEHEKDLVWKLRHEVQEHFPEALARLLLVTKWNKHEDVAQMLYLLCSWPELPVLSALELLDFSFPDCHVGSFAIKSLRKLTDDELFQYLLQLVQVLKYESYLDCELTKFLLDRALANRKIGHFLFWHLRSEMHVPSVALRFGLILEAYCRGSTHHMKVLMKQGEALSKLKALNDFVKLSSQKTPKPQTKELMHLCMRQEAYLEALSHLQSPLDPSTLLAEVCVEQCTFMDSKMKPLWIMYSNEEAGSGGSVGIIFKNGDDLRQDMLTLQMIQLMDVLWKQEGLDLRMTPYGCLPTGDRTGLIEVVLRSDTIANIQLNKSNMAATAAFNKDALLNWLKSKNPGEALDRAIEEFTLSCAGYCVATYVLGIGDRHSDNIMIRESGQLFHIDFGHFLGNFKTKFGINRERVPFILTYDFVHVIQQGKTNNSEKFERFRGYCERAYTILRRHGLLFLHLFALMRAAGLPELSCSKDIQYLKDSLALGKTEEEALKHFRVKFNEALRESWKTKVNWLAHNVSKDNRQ
Chain of recombinant PI3 kinase δ (P27986 whole entry partner): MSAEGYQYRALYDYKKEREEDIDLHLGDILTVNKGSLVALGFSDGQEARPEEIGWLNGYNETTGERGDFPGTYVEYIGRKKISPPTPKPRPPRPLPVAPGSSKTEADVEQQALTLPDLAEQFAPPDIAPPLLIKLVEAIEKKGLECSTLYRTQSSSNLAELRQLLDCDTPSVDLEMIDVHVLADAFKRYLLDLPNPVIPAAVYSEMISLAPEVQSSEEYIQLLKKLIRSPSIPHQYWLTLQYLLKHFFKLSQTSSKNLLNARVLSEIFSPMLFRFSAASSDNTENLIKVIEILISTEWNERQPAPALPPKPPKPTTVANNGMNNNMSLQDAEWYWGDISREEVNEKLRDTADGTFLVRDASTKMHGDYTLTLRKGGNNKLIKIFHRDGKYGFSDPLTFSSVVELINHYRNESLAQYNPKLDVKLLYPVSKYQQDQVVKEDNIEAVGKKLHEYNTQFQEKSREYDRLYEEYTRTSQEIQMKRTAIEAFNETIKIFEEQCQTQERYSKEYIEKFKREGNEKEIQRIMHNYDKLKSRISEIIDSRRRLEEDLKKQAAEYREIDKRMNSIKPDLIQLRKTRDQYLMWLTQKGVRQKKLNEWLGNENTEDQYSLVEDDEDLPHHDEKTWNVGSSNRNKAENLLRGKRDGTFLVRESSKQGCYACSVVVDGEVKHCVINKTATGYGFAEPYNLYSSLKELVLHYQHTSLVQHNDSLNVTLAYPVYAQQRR
Chain of recombinant PI3 kinase α (P42336 whole entry): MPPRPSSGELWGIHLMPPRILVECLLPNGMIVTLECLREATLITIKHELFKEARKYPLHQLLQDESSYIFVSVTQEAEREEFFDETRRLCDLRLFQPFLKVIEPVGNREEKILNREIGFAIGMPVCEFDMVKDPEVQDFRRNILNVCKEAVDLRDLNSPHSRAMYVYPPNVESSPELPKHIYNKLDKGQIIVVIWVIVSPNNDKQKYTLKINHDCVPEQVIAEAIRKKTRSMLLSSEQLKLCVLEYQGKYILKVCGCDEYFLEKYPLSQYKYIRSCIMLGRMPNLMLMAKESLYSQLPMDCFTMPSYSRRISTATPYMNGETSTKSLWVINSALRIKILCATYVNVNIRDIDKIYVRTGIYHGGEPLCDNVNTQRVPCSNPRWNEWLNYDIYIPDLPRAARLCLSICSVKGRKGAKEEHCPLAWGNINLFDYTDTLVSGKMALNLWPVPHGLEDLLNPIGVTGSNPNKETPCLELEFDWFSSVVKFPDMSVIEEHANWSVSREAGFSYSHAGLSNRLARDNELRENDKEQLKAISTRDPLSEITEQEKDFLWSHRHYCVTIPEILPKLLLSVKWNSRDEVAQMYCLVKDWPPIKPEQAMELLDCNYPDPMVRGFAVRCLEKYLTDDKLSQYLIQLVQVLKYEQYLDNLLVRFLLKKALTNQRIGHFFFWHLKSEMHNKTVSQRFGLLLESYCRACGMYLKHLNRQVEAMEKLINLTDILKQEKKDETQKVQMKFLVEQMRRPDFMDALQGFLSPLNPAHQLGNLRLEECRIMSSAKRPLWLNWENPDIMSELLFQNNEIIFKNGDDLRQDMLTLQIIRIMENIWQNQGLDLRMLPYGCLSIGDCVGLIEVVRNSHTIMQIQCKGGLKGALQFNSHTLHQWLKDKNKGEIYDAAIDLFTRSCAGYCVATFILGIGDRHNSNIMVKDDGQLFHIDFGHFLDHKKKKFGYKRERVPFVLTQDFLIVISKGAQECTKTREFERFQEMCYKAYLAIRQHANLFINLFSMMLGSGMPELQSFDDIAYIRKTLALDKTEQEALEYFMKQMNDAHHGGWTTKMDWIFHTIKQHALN
Chain of recombinant PI3 kinase α (P27986 whole entry partner): as the sequence (P27986 whole entry partner) above

SMILES | IC50 (recombinant PI3 kinase γ; [4]) | IC50 (recombinant PI3 kinase δ; [5]) | IC50 (recombinant PI3 kinase α; [6]) | IC50 [3, 7] | IC50 (recombinant PI3 kinase γ; read-out: PI3 Kinase Inhibition IC50 values at stated Isozyme (nM) γ) | IC50 (recombinant PI3 kinase δ; read-out: PI3 Kinase Inhibition IC50 values at stated Isozyme (nM) δ) | IC50 (recombinant PI3 kinase α; read-out: PI3 Kinase Inhibition IC50 values at stated Isozyme (nM) α) | IC50 ([3]; dU937, read-out: Cellular Activity IC50 values (H2O2 induced pAkt (nM) D-U937 Cells)) | atropisomerism by chiral stationary phase HPLC [1] | Cell Viability MTT Assay in D-U937 cells at 4 hr [2] | Cell Viability MTT Assay in D-U937 cells at 24 hr [2] | IC50 [3, 8]
C#Cc1cccc2nc(Cn3nc(-c4cccc(O)c4)c4c(N)ncnc43)n(Cc3cccc(C#N)c3)c(=O)c12 [Example 24, 3-((2-((4-Amino-3-(3-hydroxyphenyl)-1H-pyrazolo[3,4-d]pyrimidin-1-yl)methyl)-5-ethynyl-4-oxoquinazolin-3(4H)-yl)methyl)benzonitrile] | 50 to 1000 nM | < 50 nM | 50 to 1000 nM | < 10 nM | – | – | – | – | no evidence for atropisomerism was observed | − (− <30%) | − (− <30%) | –
C#Cc1cccc2nc(Cn3nc(-c4ccc(O)cc4)c4c(N)ncnc43)n(Cc3ccc(F)cc3)c(=O)c12 [Example 38, 2-((4-Amino-3-(4-hydroxyphenyl)-1H-pyrazolo[3,4-d]pyrimidin-1-yl)methyl)-5-ethynyl-3-(4-fluorobenzyl) quinazolin-4(3H)-one] | 50 to 1000 nM | < 50 nM | 50 to 1000 nM | < 10 nM | – | – | – | – | no evidence for atropisomerism was observed | − (− <30%) | − (− <30%) | –
C#Cc1cccc2nc(Cn3nc(-c4ccc(O)cc4)c4c(N)ncnc43)n(Cc3ccccc3Cl)c(=O)c12 [Example 9, 2-((4-Amino-3-(4-hydroxyphenyl)-1H-pyrazolo[3,4-d]pyrimidin-1-yl)methyl)-3-(2-chlorobenzyl)-5-ethynyl quinazolin-4(3H)-one] | 50 to 1000 nM | < 50 nM | 50 to 1000 nM | – | – | – | – | – | no evidence for atropisomerism was observed | − (− <30%) | − (− <30%) | < 10 nM
C#Cc1cccc2nc(Cn3nc(-c4ccc(O)cc4)c4c(N)ncnc43)n(Cc3cccc(Cl)c3)c(=O)c12 [Example 11, 2-((4-Amino-3-(4-hydroxyphenyl)-1H-pyrazolo[3,4-d]pyrimidin-1-yl)methyl)-3-(3-chlorobenzyl)-5-ethynyl quinazolin-4(3H)-one] | 50 to 1000 nM | < 50 nM | 50 to 1000 nM | – | – | – | – | – | no evidence for atropisomerism was observed | − (− <30%) | − (− <30%) | < 10 nM
C#Cc1cccc2nc(Cn3nc(-c4ccc(O)cc4)c4c(N)ncnc43)n(Cc3cc(C)on3)c(=O)c12 [Example 32, 2-((4-Amino-3-(4-hydroxyphenyl)-1H-pyrazolo[3,4-d]pyrimidin-1-yl)methyl)-5-ethynyl-3-((5-methylisoxazol-3-yl)methyl)quinazolin-4(3H)-one] | 50 to 1000 nM | < 50 nM | 50 to 1000 nM | < 10 nM | – | – | – | – | no evidence for atropisomerism was observed | − (− <30%) | − (− <30%) | –
C#Cc1cccc2nc(Cn3nc(-c4ccc(O)cc4)c4c(N)ncnc43)n(Cc3ccccc3F)c(=O)c12 [Example 13, 2-((4-Amino-3-(4-hydroxyphenyl)-1H-pyrazolo[3,4-d]pyrimidin-1-yl)methyl)-5-ethynyl-3-(2-fluorobenzyl) quinazolin-4(3H)-one] | 50 to 1000 nM | < 50 nM | 50 to 1000 nM | – | – | – | – | – | no evidence for atropisomerism was observed | − (− <30%) | − (− <30%) | < 10 nM

Second part, led by results:

IC50 (recombinant PI3 kinase γ; [4]) | IC50 (recombinant PI3 kinase δ; [5]) | IC50 (recombinant PI3 kinase α; [6]) | IC50 [3, 7] | IC50 (recombinant PI3 kinase γ; read-out: PI3 Kinase Inhibition IC50 values at stated Isozyme (nM) γ) | IC50 (recombinant PI3 kinase δ; read-out: PI3 Kinase Inhibition IC50 values at stated Isozyme (nM) δ) | IC50 (recombinant PI3 kinase α; read-out: PI3 Kinase Inhibition IC50 values at stated Isozyme (nM) α) | IC50 ([3]; dU937, read-out: Cellular Activity IC50 values (H2O2 induced pAkt (nM) D-U937 Cells)) | SMILES | atropisomerism by chiral stationary phase HPLC [1] | Cell Viability MTT Assay in D-U937 cells at 4 hr [2] | Cell Viability MTT Assay in D-U937 cells at 24 hr [2] | IC50 [3, 8]
50 to 1000 nM | < 50 nM | 50 to 1000 nM | < 10 nM | – | – | – | – | C#Cc1cccc2nc(Cn3nc(-c4ccc(O)cc4)c4c(N)ncnc43)n(Cc3ccc(S(C)(=O)=O)cc3)c(=O)c12 [Example 20, 2-((4-Amino-3-(4-hydroxyphenyl)-1H-pyrazolo[3,4-d]pyrimidin-1-yl)methyl)-5-ethynyl-3-(4-(methylsulfonyl)benzyl)quinazolin-4(3H)-one] | no evidence for atropisomerism was observed | − (− <30%) | − (− <30%) | –
50 to 1000 nM | < 50 nM | 50 to 1000 nM | < 10 nM | – | – | – | – | C#Cc1cccc2nc(Cn3nc(-c4cccc(O)c4)c4c(N)ncnc43)n(Cc3cccc(S(C)(=O)=O)c3)c(=O)c12 [Example 23, 2-((4-Amino-3-(3-hydroxyphenyl)-1H-pyrazolo[3,4-d]pyrimidin-1-yl)methyl)-5-ethynyl-3-(3-(methylsulfonyl)benzyl)quinazolin-4(3H)-one] | no evidence for atropisomerism was observed | − (− <30%) | − (− <30%) | –
50 to 1000 nM | < 50 nM | 50 to 1000 nM | < 10 nM | – | – | – | – | C#Cc1cccc2nc(Cn3nc(-c4cccc(O)c4)c4c(N)ncnc43)n(Cc3ccc(Cl)cc3)c(=O)c12 [Example 25, 2-((4-Amino-3-(3-hydroxyphenyl)-1H-pyrazolo[3,4-d]pyrimidin-1-yl)methyl)-3-(4-chlorobenzyl)-5-ethynylquinazolin-4(3H)-one] | no evidence for atropisomerism was observed | − (− <30%) | − (− <30%) | –
50 to 1000 nM | < 50 nM | 50 to 1000 nM | < 10 nM | – | – | – | – | C#Cc1cccc2nc(Cn3nc(-c4cccc(O)c4)c4c(N)ncnc43)n(Cc3ccc(S(C)(=O)=O)cc3)c(=O)c12 [Example 19, 2-((4-Amino-3-(3-hydroxyphenyl)-1H-pyrazolo[3,4-d]pyrimidin-1-yl)methyl)-5-ethynyl-3-(4-(methylsulfonyl)benzyl)quinazolin-4(3H)-one] | no evidence for atropisomerism was observed | − (− <30%) | − (− <30%) | –
50 to 1000 nM | < 50 nM | > 1000 nM | < 10 nM | 289 nM | 4 nM | 1970 nM | 0.57 nM | C#Cc1cccc2nc(Cn3nc(-c4cccc(O)c4)c4c(N)ncnc43)n(Cc3cccc(OC)c3)c(=O)c12 [Example 15, 2-((4-Amino-3-(3-hydroxyphenyl)-1H-pyrazolo[3,4-d]pyrimidin-1-yl)methyl)-5-ethynyl-3-(3-methoxybenzyl)quinazolin-4(3H)-one] | no evidence for atropisomerism was observed | − (− <30%) | − (− <30%) | –
50 to 1000 nM | < 50 nM | 50 to 1000 nM | < 10 nM | – | – | – | – | C#Cc1cccc2nc(Cn3nc(-c4cccc(O)c4)c4c(N)ncnc43)n(Cc3ccc(C(F)(F)F)cc3)c(=O)c12 [Example 21, 2-((4-Amino-3-(3-hydroxyphenyl)-1H-pyrazolo[3,4-d]pyrimidin-1-yl)methyl)-5-ethynyl-3-(4-(trifluoromethyl)benzyl)quinazolin-4(3H)-one] | no evidence for atropisomerism was observed | − (− <30%) | − (− <30%) | –
